This data set concerns the target T1, TLR9 (Mus musculus, UniProt Q9EQU3).
T1 construct: endogenous in cells; host or cells: Flt3L-derived dendritic cells cultured from bone marrow of female Balb/C mice
T1 sequence (Q9EQU3 26-1032): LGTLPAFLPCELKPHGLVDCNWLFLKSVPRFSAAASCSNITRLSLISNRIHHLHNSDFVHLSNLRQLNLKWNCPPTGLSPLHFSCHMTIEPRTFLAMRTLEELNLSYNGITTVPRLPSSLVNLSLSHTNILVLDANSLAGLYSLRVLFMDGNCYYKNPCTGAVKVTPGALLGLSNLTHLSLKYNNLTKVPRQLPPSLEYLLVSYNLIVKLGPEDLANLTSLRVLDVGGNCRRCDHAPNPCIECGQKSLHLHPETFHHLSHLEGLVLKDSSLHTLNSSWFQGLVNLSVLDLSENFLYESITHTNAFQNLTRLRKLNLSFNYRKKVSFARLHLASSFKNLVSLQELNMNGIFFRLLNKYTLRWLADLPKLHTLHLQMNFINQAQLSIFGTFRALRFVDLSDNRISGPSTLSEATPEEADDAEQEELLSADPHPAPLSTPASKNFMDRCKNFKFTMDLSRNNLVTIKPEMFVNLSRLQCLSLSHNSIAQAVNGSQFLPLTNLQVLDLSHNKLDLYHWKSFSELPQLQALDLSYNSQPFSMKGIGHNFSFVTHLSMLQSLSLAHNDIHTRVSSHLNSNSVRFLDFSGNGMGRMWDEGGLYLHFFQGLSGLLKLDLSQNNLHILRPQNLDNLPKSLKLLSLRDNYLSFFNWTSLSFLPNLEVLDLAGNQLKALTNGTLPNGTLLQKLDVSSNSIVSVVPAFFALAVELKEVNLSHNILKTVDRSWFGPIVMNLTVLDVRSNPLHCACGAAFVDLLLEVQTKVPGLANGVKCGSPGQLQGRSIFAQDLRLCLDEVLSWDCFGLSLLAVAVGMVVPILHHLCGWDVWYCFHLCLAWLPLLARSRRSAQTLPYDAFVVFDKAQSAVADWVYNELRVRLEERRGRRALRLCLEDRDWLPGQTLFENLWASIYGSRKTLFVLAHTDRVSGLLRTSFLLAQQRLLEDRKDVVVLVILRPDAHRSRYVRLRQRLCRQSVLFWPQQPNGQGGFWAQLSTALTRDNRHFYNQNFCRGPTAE
In words: CpG ODN (TLR9 agonist)-induced IFN-α in murine Flt3L-derived dendritic cells. It is filed as cell-based. The note with it: murine Flt3L DC; 1:1 molar ratio. As for the experimental part:
Lipid Encapsulation of RNA and ODN. RNA or ODN were encapsulated in liposomes by a process of spontaneous vesicle formation as described in Judge et al., supra, and Jeffs et al., Pharm. Res., 22:362-372 (2005).
Flt3L-derived dendritic cells (DC) were generated as described in Gilliet et al., J. Exp. Med., 195:953-958 (2002), using 100 ng/ml murine Flt3-ligand (Peprotech) supplemented media. Femurs and tibiae of female Balb/C mice were isolated and rinsed in sterile PBS. The ends of bones were cut and marrow harvested in complete media (RPMI 1640, 10% heat inactivated FBS, 1% penicillin/streptomycin, 2 mM L-glutamine, 1 mM sodium pyruvate, 25 mM HEPES, 50 μM 2-mercaptoethanol). Bone marrow cells were passed through a 70 μm strainer and centrifuged at 1000 rpm for 7 min. and resuspended in complete media supplemented with 100 ng/ml murine Flt3L to 2×10^6 cells/ml. 2 ml of cells were seeded in 6-well plates and 1 ml fresh media was added every two to three days. On day 9 of culture, non-adherent cells were washed in complete media and plated into 96-well plates at concentrations ranging from 0.5 to 2.5×10^5 cells/well.
Loxoribine (InvivoGen; San Diego, Calif.), polyIC (Sigma-Aldrich; St. Louis, Mo.), and formulated nucleic acids were diluted in PBS and added to either human PBMC or Flt3L DC cultures. Cells were incubated 24 h at 37° C. before supernatants were assayed for cytokines by ELISA.
Cytokine ELISA. All cytokines were quantified using sandwich ELISA kits according to the manufacturer's instructions. These were mouse and human IFN-α (PBL Biomedical; Piscataway, N.J.) and IL-6 (eBioscience; San Diego, Calif.).

For the substance “polyUmod21: 2′OMe-uridine homopolymer of 21 nucleotides in length (UUUUUUUUUUUUUUUUUUUUU; all 2'-O-methyl, backbone not given here)”, the “level of IFN-α induction by Type B ODN (1826) when co-formulated” value is listed as “no inhibitory effect” and the “level of IFN-α induction by Type C ODN (M362) when co-formulated” value is “no inhibitory effect”.

These data come from patent US20080171716A1, “NUCLEIC ACID MODULATION OF TOLL-LIKE RECEPTOR-MEDIATED IMMUNE STIMULATION” (Protiva Biotherapeutics, Inc., priority 2006, published 2008).
